{"source": "patent US6177475A", "about": "“Methods of using integrin modulators for treatment of inflammation” (priority 1997, dated 2001)", "key": {"VLA-4 (CS-1)": {"system": "VLA-4 (CS-1)", "assay": "VLA-4-dependent adhesion of Jurkat and MV3 cells to CS-1", "assay_type": "cell-based, human", "details": "in this concentration range", "procedure": "Microtiter plates were coated with ligands of the integrin VLA-4, i.e., recombinant human VCAM-1 (500 nanograms per well) or the fragment of connective segment of human fibronectin (CS-1), covalently attached to ovalbumin (5 micrograms per well) by overnight incubation (4° C.) with solutions of the proteins in phosphate-buffered saline (PBS). The plates were blocked with 1% bovine serum albumin (BSA) in Hanks' buffered salt solution (HBSS-BSA). The cells (Jurkat or human melanoma MV3) were labeled with the fluorescent dye 5-chloromethylfluorescein diacetate (CMFDA) and introduced into the wells of the plates (10^5 cells per well) together with varying amounts of Ajoene. After incubation at 37° C. for 1 h, the unbound cells were removed by aspiration and the wells washed four times with HBSS-BSA. Thereafter, the bound cells were lysed with 0.5% Triton X-100, and the fluorescence was measured using a Cytofluor 2300 plate reader. The number of adherent cells was calculated from a standard dilution curve of Triton X-100 lysates of the CMFDA-labeled cells."}, "Jurkat cells": {"system": "Jurkat cells", "assay": "Disruption of cell clusters formed by Jurkat cells in culture", "assay_type": "cell-based", "details": "Homo sapiens, 16 to 24 h", "procedure": "T-lymphocytic H9 and Jurkat cells were maintained as suspension cultures in RPMI-1640 medium supplemented with 10% (v/v) heat-inactivated fetal calf serum, 50 micrograms/ml gentamycin and 2 mM L-glutamine. To assess the effects of Ajoene on adhesive interactions of the cells, H9 cells or Jurkat cells were seeded in 96-well flat-bottomed plates (3×10^5cells per well) and cultured in the presence of log 10 dilutions of Ajoene (experiment) or its vehicle (control) for 16 to 24 h.\nThe requirement of integrins for the formation of cell-to-cell contacts in each of these systems has long been established. It is known that in platelets the relevant integrin is GP IIb/IIIa (β3). Neutrophil aggregation is underlain by interactions of β2 integrins (e.g., LFA-1 and/or Mac-1) with their surface counterstructures, while cohesion of T-cells is supported by both β2 integrins and fibronectin-binding β1 integrins (e.g., VLA-4 and VLA-5)."}, "LFA-1 (ICAM-1)": {"system": "LFA-1 (ICAM-1)", "assay": "Adhesion of TPA-activated Jurkat cells to SVT2/ICAM-1 monolayers", "assay_type": "cell-based", "details": "Homo sapiens, 0.75 h, SVT2/ICAM-1, TPA 125 ng/ml, 45 min", "procedure": "SVT2 cells transfected with human ICAM-1 or VCAM-1 (SVT2/ICAM-1 and […], respectively) were plated into 96-well plates and cultured overnight. […] The labeled Jurkat cells were washed three times and resuspended at a density of 4×10^6 cells/ml in complete RPMI medium. Serial dilutions of Ajoene were prepared in complete RPMI medium. Aliquots of the cells (0.5 ml) were then mixed with an equal volume of Ajoene dilutions (1:1 v/v), and the mixtures incubated at 37° C. for 30 min. Thereafter, Ajoene-incubated cells were added in duplicate to SVT2/ICAM-1 and SVT2/VCAM-1 monolayers, and TPA was introduced into each well to the final concentration of 125 ng/ml. The plates were incubated at 37° C. for 45 min, after which the non-adherent cells were removed by washing with warm complete RPMI medium. The bound labeled cells were lysed by adding 1% Triton X-100 solution in 0.1 N HCl. The lysates were assayed in a gamma counter to determine the percentage of bound cells. […] Thus, coculturing of Jurkat cells with SVT2/ICAM-1 and SVT2/VCAM-1 cells makes it possible to assess, respectively, the function of IFA-1 and VLA-4 under identical conditions. In the absence of TPA, 10 and 20% of the added Jurkat cells adhered to SVT2/ICAM-1 and SVT2/VCAM-1 cells, respectively. […]"}, "[1]": {"system": "H9RF cells / H9 cells (HIV-1RF)", "assay": "HIV-induced syncytium formation, H9RF donor with H9 recipient", "assay_type": "cell-based", "excerpt": "For curve 1, the effect of Ajoene on the fusion of cultured, intact H9 cells with HIV infected H9RF cells is disclosed. For this curve, the vertical graph axis pertains to the maximum amount of syncytia formed in the absence of Ajoene (100 percent), while the points on line 1 represent percentages of such an amount of syncytia formed in the presence of varying concentrations of Ajoene (micromoles per liter).\nChronically infected and uninfected cell lines (HIV donors and targets, respectively) were maintained as suspension cultures in RPNI-1640 medium supplemented with 10% (v/v) heat-inactivated fetal calf serum, 50 micrograms/ml gentamycin and 2 mM L-glutamine. HIV donors used were (1) a cloned population of H9 cells harboring the genome of HIV-1RF (H9RF cells); and (2) a cloned population of SupT1 cells harboring the genome of HIV-1LAV-BRU (SupT1LAV-BRU cells). To assess the effect of Ajoene on syncytium formation, the donors were mixed with their respective recipients, H9 and SupT1, at a ratio of 1:2 in 96-well flat-bottomed plates (3×10^5 cells per well). Log 10 dilutions of Ajoene were then introduced into the wells, and the cells were cocultured for 16 h. Control wells received the vehicle of Ajoene. By the end of the incubation period syncytia were counted, and the values of IC50 for Ajoene were calculated by plotting relative amounts of syncytia (percent of the syncytia formed in the absence of the compound) against Ajoene concentration."}, "WI-38 cells": {"system": "WI-38 cells", "assay_type": "cell-based, human"}, "[2]": {"system": "MOLT-4 cells / syncytiotrophoblasts", "assay": "Adhesion of uninfected MOLT-4 clone 8 cells to syncytiotrophoblasts", "assay_type": "cell-based, human", "excerpt": "Human fetal placental epithelial cells, known as syncytiotrophoblasts, were organized in a monolayer and exposed to HIV-infected lymphocytic cells and, as a negative control, to uninfected cells of the same type. This experimental system, closely simulating the actual conditions under which syncytiotrophoblasts would be exposed to HIV-infected cells in vivo, was used to assess integrin-modulating effects of Ajoene.\nMOLT-4 clone 8 cells were labeled with calcein-AM, pretreated with different concentrations of Ajoene (0-200 micromoles per liter) and incubated with cultured term syncytiotrophoblast cells at 37° C. for one hour in the presence of Ajoene. Adhesion was measured directly as fluorescence units after background correction. Controls included measuring adhesion in the presence of the appropriate carrier solvent."}}, "note": "Read-outs that look alike come from different tables or passages of the source.", "data": [{"smiles": "C=CCSSC=CC[S+]([O-])CC=C", "note": "(stereo not shown) [Ajoene, 4,5,9-trithiadodeca-1,6,11-triene-9-oxide]", "values": [{"measurement": "inhibition of adhesion to CS-1", "setting": "VLA-4 (CS-1)", "result": "no inhibition of adhesion to CS-1 could be detected"}, {"measurement": "IC50", "setting": "Jurkat cells", "result": "~50", "unit": "nM"}, {"measurement": "IC50", "setting": "LFA-1 (ICAM-1)", "result": 10000, "unit": "nM"}, {"measurement": "syncytia found (FIG. 1, curve 1)", "setting": "[1]; 50 micromoles of Ajoene per liter", "result": "Essentially no syncytia were found"}, {"measurement": "IC50", "setting": "[1]; Human immunodeficiency virus 1, H9, 16 h incubation, both donor/recipient systems, read-out: IC50 range for fusion and syncytium formation", "result": "5 to 50", "unit": "nM"}, {"measurement": "IC50", "setting": "[1]; Human immunodeficiency virus 1, H9RF donor, H9 recipient, 16 h, read-out: IC50 of Ajoene, syncytium formation", "result": "~50", "unit": "nM"}, {"measurement": "IC50", "setting": "[1]; Human immunodeficiency virus 1, H9 with H9RF cells, read-out: IC50 of syncytium formation (FIG. 1, curve 1)", "result": 45, "unit": "nM"}, {"measurement": "toxicity", "setting": "WI-38 cells", "result": "no detectable toxicity"}, {"measurement": "inhibition of adhesion of MOLT-4 cells to syncytiotrophoblasts", "setting": "[2]; 200 micromoles per liter", "result": 100, "unit": "%"}, {"measurement": "IC50", "setting": "[2]; Homo sapiens, MOLT-4, 1 hour, 37° C., cells not infected with HIV", "result": 60000, "unit": "nM"}]}]}
